# Laboratory results: patent US9877978B2, “Compositions comprising NDGA derivatives and sorafenib and their use in treatment of cancer” (THE JOHNS HOPKINS UNIVERSITY, priority 2012, dated 2018)
# Like-named read-outs stand apart in the source and are kept apart here.
# How the values were obtained:
# [1] = system: caspase activation (procaspases 9, 4 and 7, caspase 3) in AsPc-1 human pancreatic carcinoma cells; assay: Western immunoblot analysis of caspase activation; format: cell-based; details: for caspase activation (procaspase cleavage): 80 μM M4N, 40 μM sorafenib (FIG. 17); for caspase 3 activation: after 18 h of treatment
# Experimental: Western immunoblot analysis. Treated and control cells were washed with PBS and suspended in RIPA buffer (150 mM NaCl, 50 mM Tris-HCL (pH8.0), 0.1% SDS, 1% NP40, and 0.5% deoxycholate) supplemented with protease inhibitor cocktail. After a 20 min incubation on ice, the suspension was centrifuged to clear the solubilized proteins. Bradford protein assay were performed and samples containing equivalent amounts of protein were resolved by standard SDS-polyacrylamide gel electrophoresis and transferred to nirocellulose membrane. The membranes were blocked with skim milk, and incubated with primary antibodies at 4° C. overnight and then with secondary antibody conjugated with horse radish peroxidase at room temperature for 1 h. The signals were detected by western blot chemiluminescence detection reagent.
# HepG2 human HCC cells = assay: MTT cytotoxicity assay with median-effect / combination index analysis; format: cell-based; details: for DRI value at ED75 / DRI value at ED90 / DRI value at ED95: single agent vs combination; for IC50: Homo sapiens
# Experimental: Cytotoxicity assay. […] M4N was used at concentrations between 0 and 80 μM. For the combination of M4N and sorafenib a constant molar ratio of 2:1 (M4N:sorafenib) was used. Twenty four hours after drug addition, cytotoxicity was assessed with the MTT assay with […] measured with a Power Wave 200 microplate reader.
# Evaluation of drug interactions. The combination index (CI) isobologram method of Chou and Talalay, which is based on the median-effect principle, was used to calculate synergism or antagonism for the combined drug effects. Dose-effect curves for the two drugs, singly and in combination, in serially diluted concentrations were plotted using the median-effect equation and plot and the CI equation and plot. CI values at different effect and dose levels and isobolograms were generated automatically using the computer software CompuSyn. With this method, additive, synergistic, or antagonistic effects are indicated by CI values of 1, <1, and >1, respectively. Comparison of the ratio of doses required to reach a given effect level for each single drug and the drugs in combination was used to determine the dose-reduction.
# [2] = HepG2, concurrent administration of M4N
Compound,caspase activation (procaspase cleavage) [1],caspase 3 activation [1],"DRI value at ED75 (HepG2 human HCC cells; HepG2, 24 h)","DRI value at ED90 (HepG2 human HCC cells; HepG2, 24 h)","DRI value at ED95 (HepG2 human HCC cells; HepG2, 24 h)","IC50 (HepG2 human HCC cells; HepG2, 24-Hour Treatment, combination at constant molar ratio 2:1 (M4N:sorafenib), read-out: Dm, median effect dose (concentration that inhibits cell growth by 50%)) [µM]",DRI: decrease of concentration necessary to inhibit growth of 50% of cells (ED50) (HepG2 human HCC cells; [2]),DRI: decrease of concentration necessary to inhibit growth of 75% of cells (ED75) (HepG2 human HCC cells; [2]),DRI: decrease of concentration necessary to inhibit growth of 95% of cells (ED95) (HepG2 human HCC cells; [2]),"IC50 (HepG2 human HCC cells; HepG2, after 24 h of treatment (FIG. 4), read-out: IC50 against HepG2 cells) [µM]","cytotoxic effect (HepG2 human HCC cells; sorafenib 20 μM alone, HepG2, 24 h) [%]"
"COc1ccc(C[C@@H](C)[C@@H](C)Cc2ccc(OC)c(OC)c2)cc1OC [M4N, tetra-O-methyl nordihydroguaiaretic acid]",little effect on caspase activation,neither drug nor their combination had an effect,3.15,1.75,1.17,283,–,–,–,–,–
CNC(=O)c1cc(Oc2ccc(NC(=O)Nc3ccc(Cl)c(C(F)(F)F)c3)cc2)ccn1 [sorafenib],"decreased levels of procaspases 9, 4 and 7",neither drug nor their combination had an effect,92815.6,489945.0,1519041,–,"17,583.1 fold","92,815.6 fold","151,9041 fold",~30,~20
